Laboratory results: patent US5358945A, “Pyrimidine compound and pharmaceutically acceptable salts thereof” (Mitsui Petrochemical Industries, Ltd., priority 1990, dated 1994)

Key:
Mouse neuro 2a cells = experiment: Neurite outgrowth of mouse neuroblastoma neuro 2a cells (Table 7); format: cell-based; details: mean ± S.D.
Summary of the method: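 Neuro-2a cells seeded at 1,000 cells/well in DMEM with 10% FCS, cultured one day at 37 °C, 5% CO2, then 24 h with compound (up to 6 concentrations, triplicate). Fixed with glutaraldehyde, methylene blue stained; percentage of cells bearing neurites ≥2× cell long diameter counted microscopically (>200 cells).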

[1] = system: Mouse neuroblastoma cells NS-20Y; experiment: Neurite appearance in mouse neuroblastoma NS-20Y cells (Table 8); format: cell-based;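 note: cells grown in polyornithine-coated dishes, with timing counted from the start of culture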
mouse = experiment: Acute toxicity in mouse (Table 10); format: in vivo; details: i.p., 24 hours after administration
Protocol: The acute toxicity of the compounds of the invention was examined by the following method.
Male ddy-strain 5-week old mice, 4-6 per group, were used as experimental animals. Each of the compounds was dissolved or suspended in saline and administered perorally (p.o.) or intraperitoneally (i.p.), and the toxicity of the compound was assessed 24 hours after the administration.

| Compound | Ratio of the number of cells having neurites with a length of at least two times as large as the diameter of cells to the total number of cells (Mouse neuro 2a cells; 0.03 mM) [%] | Ratio of the number of cells having neurites with a length of at least two times as large as the diameter of cells to the total number of cells (Mouse neuro 2a cells; 0.3 mM) [%] | The number of cells in which neurites appeared/Total number of cells ([1]; 24 hour, 0.1 mM) | The number of cells in which neurites appeared/Total number of cells ([1]; 24 hour, 0.5 mM) | The number of cells in which neurites appeared/Total number of cells ([1]; 48 hour, 0.1 mM) | Estimated LD50 (mouse) [mg/kg] | Ratio of the number of cells having neurites with a length of at least two times as large as the diameter of cells to the total number of cells (Mouse neuro 2a cells; 0.01 mM) [%] | Ratio of the number of cells having neurites with a length of at least two times as large as the diameter of cells to the total number of cells (Mouse neuro 2a cells; 0.1 mM) [%] | The number of cells in which neurites appeared/Total number of cells ([1]; 24 hour, 0.2 mM) | The number of cells in which neurites appeared/Total number of cells ([1]; 48 hour, 0.2 mM) | Ratio of the number of cells having neurites with a length of at least two times as large as the diameter of cells to the total number of cells (Mouse neuro 2a cells; 1 mM) [%] | The number of cells in which neurites appeared/Total number of cells ([1]; 48 hour, 0.5 mM) |
| --- | --- | --- | --- | --- | --- | --- | --- | --- | --- | --- | --- | --- |
| O=C1CCCN1c1ccnc(N2CCCc3ccccc32)n1 [Compound 360] | 4.8 ± 1.2 | 6.7 ± 0.8 | 5/50 | 6/50 | 3/50 | > 500 | – | – | – | – | – | – |
| O=C1CCCN1c1ccnc(N2CCC(Cc3ccccc3)CC2)n1 [Compound 368] | – | – | – | – | – | > 500 | 3.4 ± 0.3 | 14.4 ± 1.7 | 6/50 | 2/50 | – | – |
| CCOC(=O)C1CCN(c2nccc(N3CCCC3=O)n2)CC1 [Compound 376] | – | 6.0 ± 0.5 | – | – | – | > 500 | 3.4 ± 0.6 | 4.4 ± 0.8 | 5/50 | 5/50 | – | – |
| O=C1CCCN1c1ccnc(N2CCNCC2)n1 [Compound 384] | – | 8.3 ± 2.7 | – | 14/50 | – | > 500 | 4.1 ± 1.5 | 5.1 ± 2.1 | 10/50 | 10/50 | 11.5 ± 1.3 | 17/50 |
| O=C1CCCN1c1ccnc(N2CCOCC2)n1 [Compound 392] | 6.6 ± 2.2 | 6.1 ± 4.0 | – | 15/50 | – | > 500 | – | 5.6 ± 3.7 | 10/50 | 12/50 | – | 21/50 |
| O=C1CCCN1c1ccnc(N2CCSCC2)n1 [Compound 400] | 5.0 ± 0.1 | 11.2 ± 1.5 | – | 9/50 | – | > 500 | – | 6.3 ± 0.7 | 8/50 | 11/50 | 12.1 ± 1.4 | 13/50 |
| CN1CCN(c2nccc(N3CCCC3=O)n2)CC1 [Compound 408] | 4.9 ± 0.2 | 4.4 ± 0.2 | – | 10/50 | – | > 500 | – | – | 7/50 | 8/50 | – | 11/50 |
| O=C1CCCN1c1ccnc(N2CCN(c3ccccc3)CC2)n1 [Compound 416] | – | 5.1 ± 1.2 | – | 9/50 | – | > 500 | 5.0 ± 1.9 | 4.4 ± 0.4 | 6/50 | 7/50 | – | 9/50 |
| O=C1CCCN1c1ccnc(N2CCN(Cc3ccccc3)CC2)n1 [Compound 424] | 4.5 ± 2.4 | 5.2 ± 2.5 | 3/50 | – | 2/50 | > 500 | – | 5.9 ± 1.7 | 5/50 | – | – | – |
| CN(C)c1nccc(N2CCCC2=O)n1 [Compound 432] | 4.0 ± 2.2 | – | – | 6/50 | – | > 500 | – | 4.2 ± 1.7 | – | 7/50 | 5.1 ± 1.2 | 8/50 |
| CCCCN(CCCC)c1nccc(N2CCCC2=O)n1 [Compound 440] | – | – | 3/50 | 4/50 | 4/50 | > 500 | – | 4.3 ± 0.8 | – | – | – | – |
